This note sets out measurements from ChEMBL document CHEMBL1641465, “2,4-Diaminopyrimidine inhibitors of c-Met kinase bearing benzoxazepine anilines” (Bioorg Med Chem Lett, 2011).

The half-life is how long it takes for the measured level to halve. A higher half-life goes with slow decline. For orientation: clearance means the volume of plasma or blood freed of the substance per unit of time. A high value points to a high capacity for elimination. Usually AUC(0-inf) stands for total exposure, with the tail of the curve extrapolated. Low values mean less exposure, high ones more exposure. Broadly, the bioavailability is the share of a dose that reaches the circulation, judged against a reference dose that is usually intravenous. Low readings indicate poor availability, high ones good availability.

Data set [1] can be described thus: Half life in rat at 1 mg/kg, iv. Type of data set: ADME, organism-based. Further details: dose 1 mg/kg, route intravenous. The following applies: in vivo.
A short description of data set [2]: Clearance in rat at 1 mg/kg, iv. Further details: dose 1 mg/kg, route intravenous. Type of data set: ADME, organism-based. The following applies: in vivo.
Data set [3] can be described thus: Drug level in tumor of human GTL16 cells xenografted in mouse assessed as tumor regression at 100 mg/kg, po qd for 5 days 10 hrs after last dose. Type of data set: ADME, organism-based, Neoplasm. Details: dose 100 mg/kg, route oral. The conditions noted are these: read-out: Drug uptake.
Data set [4] in a line: AUC (0 to infinity) in rat at 5 mg/kg, po. The conditions noted are these: plasma. Details: time infinity, dose 5 mg/kg, route oral. In kind it is ADME, organism-based.
Data set [5] is described as follows: AUC (0 to infinity) in rat at 1 mg/kg, iv. Further details: time infinity, dose 1 mg/kg, route intravenous. In kind it is ADME, organism-based. The conditions noted are these: plasma.
The nature of data set [6]: Oral bioavailability in rat at 5 mg/kg. The following applies: in vivo. In kind it is ADME, organism-based.
A short description of data set [7]: Drug level in tumor of human GTL16 cells xenografted in mouse assessed as tumor regression at 100 mg/kg, po qd for 5 days 2 to 10 hrs after last dose. The following applies: in vivo. In kind it is ADME, organism-based, Neoplasm. Details: dose 100 mg/kg, route oral.

A value given as a limit tells only on which side of the number the result lay.

For `CNC(=O)c1cccc(F)c1Nc1nc(Nc2ccc3c(c2)OCCCN3)ncc1Cl`, the half-life in data set [1] is 18 min. This compound also had a clearance in data set [2] of 34 mL/min/kg. Besides, the concentration at 10 h in data set [3] was over 200 ng/g.
In the case of `CNC(=O)c1cccc(F)c1Nc1nc(Nc2ccc3c(c2)OCCCN3CCN2CCCC2)ncc1Cl`, the AUC(0-inf) in data set [4] was under 100 ng·h/mL.
Compound `CCN1CCCOc2cc(Nc3ncc(Cl)c(Nc4c(F)cccc4C(=O)NC)n3)ccc21` showed an AUC(0-inf) in data set [4] of under 100 ng·h/mL.
Take `CCOC(=O)N1CCCOc2cc(Nc3ncc(Cl)c(Nc4c(F)cccc4C(=O)NC)n3)ccc21`: the AUC(0-inf) in data set [4] stood at 913 ng·h/mL; in data set [5] it was 1220 ng·h/mL. Besides, the half-life in data set [1] was 72 min. For the same compound, the clearance in data set [2] is 15.3 mL/min/kg. This compound also showed a bioavailability in data set [6] of 15%. Further, the Drug uptake in data set [7] is 125 ng/g.
